According to patent US20210187105A1, “COMBINATION THERAPY OF ANTI-MIF ANTIBODIES AND GLUCOCORTICOIDS” (Baxalta Incorporated, priority 2012, published 2021):

Key:
[1] = test system: immune mediated-nephrotoxic nephritis (NTN) in Wistar Kyoto (WKY) rats; assay: Animal model for crescentic glomerulonephritis (nephrotoxic nephritis); assay type: in vivo, rat
Description: This model is recognized in the art as predictable to show the effects of the invention. It is suitable to show the effects of the combination therapy over the complete range of diseases which can be subsumed under the above definition of “MIF related diseases” particularly, this model is suitable for the following diseases: Lupus nephritis, anti-GBM nephritis, ANCA nephritis, IgA nephropathy. Dexamethasone is recognized in the art as predictive for a respective glucocorticoid in the treatment of a human. […] This model has a rapid onset of disease with macrophage infiltration, fibrin deposition and tissue destruction 12. NTN is induced in male WKY rats by single intravenous injection of 0.1 ml rabbit anti-rat glomerular basement membrane serum (day 0). mAb and Dexamethasone is injected intraperitoneally at time points and dosages described below. 24 hour urine samples are collected using metabolic cages before induction of glomerulonephritis and at various time intervals after induction of nephritis for quantification of proteinuria. Sections of renal tissues are frozen for subsequent analysis by immunohistology. Morphology of renal injury is assessed in haematoxylin/eosin (H&E) and periodic acid-Schiff (PAS) stained renal tissue sections. Macrophage is detected by immunoperoxidase technique and using the monoclonal mouse antibody ED1 (Serotec, U C). The animal model was described in detail (Tam F W K, Smith J, Morel D, Karkar A M, Thompson E M, Cook H T, Pusey C D: Development of scarring and renal failure in a rat model of crescentic glomerulonephritis. Nephrol Dial Transplant 14:1658-1666, 1999).

[2] = test system: Contact hypersensitivity (CHS) response to 2,4-dinitrofluorobenzene (DNFB) in C57BL/6 mice; assay: Contact hypersensitivity (CHS) response to DNFB, ear swelling; assay type: in vivo, mouse; details: topical
Protocol: The Contact hypersensitivity (CHS) response to 2,4-dinitrofluorobenzene (DNFB) was determined using a modification of an earlier model described (see Ludwig, et al., 2010, Am J Pathol 176, 1339-1345). C57BL/6 mice were sensitized by treating the shaved mouse back skin with 75 μl of DNFB (Sigma, St. Louis, Mo.) solution (0.5% in acetone/olive oil, 4/1). […] the right ears of the mice were challenged with 20 μl 0.3% DNFB to cause a local inflammatory response. The vehicle (acetone/olive) oil was applied to the left ears as a control. The swelling response to DNFB, specified as the difference between the right and left ears, was measured 24 h after challenge using a micrometer (Mitutoyo Co., Tokyo, Japan). 8 mice were used per group.

[3] = single intraperitoneal injection of 0.25 mg/kg, 4 days after induction, day 8

Row | Compound | suboptimal dexamethasone concentration ([1]; dose finding) | reduction of crescent counts [1, 3] | reduction of glomerular macrophage infiltration [1, 3] | reduction of proteinuria ([1]; single intraperitoneal injection of 0.25 mg/kg, 4 days after induction, urine day 7 to day 8) | anti-inflammatory effects, ear thickness ([2]; 1% in DAC base cream ointment, without antibody) | ear swelling ([2]; suboptimal dose 1% in DAC base cream, in combination with 10 mg/kg isotype control antibody)
1 | C[C@@H]1C[C@H]2[C@@H]3CCC4=CC(=O)C=C[C@]4(C)[C@@]3(F)[C@@H](O)C[C@]2(C)[C@@]1(O)C(=O)CO [Dexamethasone, reference compound] | 0.025 mg/kg | approximately 25% | approximately 53% | approximately 50% | – | –
2 | C[C@]12CCC(=O)C=C1CC[C@@H]1[C@@H]2[C@@H](O)C[C@@]2(C)[C@H]1CC[C@]2(O)C(=O)CO [hydrocortisone] | – | – | – | – | sub-optimal anti-inflammatory effects | did not reduce ear swelling
